Counter-ions that a name gives are not always drawn. Like-named read-outs stand apart in the source and are kept apart here. Marks after values point to notes of the source that are not given here.
Tests used:
wild type HBV = assay: Antiviral activity in HepG2 cells transiently transfected with wild-type HBV, intracellular encapsidated HBV DNA; format: cell-based, HBV genotype B; conditions: Hepatitis B virus, 72 h, HepG2 transient transfection, 3 days, mean ± SD, at least three studies, read-out: WT EC50
Description: (§1) In this example, the antiviral activity of Compound 1 was determined using HepG2 liver cells transiently transfected with plasmids expression replication-competent HBV DNA and quantitation of intracellular encapsidated HBV DNA. The antiviral activity of Compound 1 was measured against nucleoside inhibitor sensitive, wild-type HBV, as well as against HBV variants resistant to nucleoside analogs that contain defined amino acid changes in the coding sequence of the reverse transcriptase protein: rtL180M/M204V, rtN236T, rtA181V, rtA181V/N236T, and rtL180M/M204V/N236T.
(§2) Plasmid DNA constructs containing a 1.1×HBV genome under the control of a CMV promoter were previously cloned from serum of an HBV infected patient prior to LMV treatment (Genbank AY220698, Fudan University, China; SEQ ID NO:1, see Table 1) and after development of resistance to LMV (Genbank AY220697, Fudan University, China; SEQ ID NO:2, see Table 1) (Zhang J M et al. 2005. J Med Virol 77: 203-208). Genotyping analysis confirmed that both isolates belong to genotype B HBV, and that the isolate collected after the development of resistance to LMV contained two amino acid changes within the polymerase gene (L180M/M204V). The HBV variant was named rtL180M/M204V to indicate that the amino acid changes were present in the reverse transcriptase (rt) protein. Two additional plasmids were generated by introducing coding sequence changes resulting in the amino acid changes N236T and A181V in the HBV polymerase, respectively. The nucleotide changes were introduced into the wild type genotype B plasmid by site directed mutagenesis according to manufacturer recommendation (Agilent Technologies; Santa Clara, Calif.; Catalog#200519) using the following primers and their corresponding reverse complement sequence (nucleotide change underlined): 5′-CTTTGGGTATACATTTAACCCCTCACAAAAC-3′ (rtN236T; SEQ ID NO:3), 5′-GTCCGTTTCTCTTGGTTCAGTTTACTAGTG-3′ (rtA181V; SEQ ID NO:4). In two additional plasmid constructs, the rtN236T amino acid change was also added into the rtA181V and rtL180M/M204V plasmids to generate the rtA181V/N236T double mutant and rtL180M/M204V/N236T triple mutant HBV variants, respectively. […]
(§3) HepG2 cells were seeded in collagen coated 96-well plates (BIOCOAT™; Fisher Scientific, Catalog#354407) at a density of 20,000 cells/well and allowed to attach overnight at 37° C. and 5% CO2. […] Cells were incubated with compounds for three days, after which intracellular HBV DNA was extracted from cells and levels of secreted Gaussian luciferase was determined from the medium using the Gaussia Flash Luciferase assay kit (THERMO SCIENTIFIC™, Fisher Scientific, Catalog#16158). […]

rtN236T HBV variant = assay: Antiviral activity in HepG2 cells transiently transfected with rtN236T HBV variant; format: cell-based, HBV genotype B; conditions: EC50 fold change relative to mean wild-type EC50; mean ± SD
Description: as §1, §2, §3

[1] = Cell viability of primary human hepatocytes (CellTiter-Glo, intracellular ATP); format: cell-based; conditions: human, cryopreserved primary human hepatocytes
Description: (§4) Cryopreserved primary human hepatocytes from individual donors (primary hepatocyte IDs: HuM4038, HuM4055A, and HuM4059) were purchased from Triangle Research Labs (TRL; Research Triangle Park, N.C.). Cells were thawed using hepatocyte thawing medium (TRL, Catalog#MCHT50) according to manufacturers' recommendations. After centrifugation, cells were resuspended in supplemented hepatocyte plating medium (TRL, Catalog#MP250). Cells were plated in collagen Type I coated 96-well plates (Corning; Corning, N.Y.; Catalog#356407) at a density of 40,000 cells per well and maintained in humidified incubators at 37° C. and 5% CO2 overnight prior to addition of test compounds.
(§5) For each donor, three 96-well plates were set up to evaluate the effect of increasing concentrations of Compound 1 either alone or in combination with nucleoside analogs on hepatocyte cell viability. On each plate, cells were incubated with Compound 1 alone as duplicates, or Compound 1 in the presence of LMV, TFV, or ETV as triplicates. The effects of nucleoside analogs alone on hepatocyte cell viability were also determined in triplicates for each donor. Compound 1 was half-log serially diluted in DMSO (Sigma, Catalog #D2650) and added to primary human hepatocytes either alone or in combination with LMV (30 and 300 μM), TFV (30 μM), or ETV (30 μM). Single and combined drugs were added to primary human hepatocytes at a final DMSO (Sigma D2650) concentration of 0.5% across all concentrations. Cells were incubated with compounds for three days, after which medium was removed and fresh medium containing compounds was added and incubated for another three days. As a no compound control, primary human hepatocytes were treated with 0.5% DMSO, and these values were then used to define the 0% inhibition level. Background signal was determined as the mean value from wells containing only culture medium. Cell viability was monitored by using CellTiter-Glo cell viability reagent according to the manufacturer protocol (Promega; Madison, Wis.; G7573). Chemiluminescence signal proportional to the amount of cellular ATP was measured by using the Victor X4 plate reader (Perkin Elmer; Waltham, Mass.). The mean background signal from the medium only wells was subtracted from all other samples, and percent inhibition was calculated using equation E1 (as in Example 1): % inhibition=(DMSOave−Xi)/DMSOave×100% (E1):
(§6) where DMSOave is the mean signal calculated from the wells that were treated with 0.5% DMSO control (0% inhibition control) and X, is the signal measured from the individual wells. CC50 values were determined from the % inhibition data obtained at different compound concentrations by non-linear fitting using Graphpad Prism software and equation E3, in cases were % inhibition values exceeded 50% at the highest concentration tested. Y=Ymin+(Ymax−Yin)/(1+10^(LogCC50−X)×HillSlope) (E3):
(§7) where Y represents percent inhibition values and X represents the logarithm of compound concentrations.

[2] = system: primary human hepatocytes; assay: as above; format: cell-based; conditions: 6 days; for cell viability at single concentrations: 30 or 300 μM LMV, 30 μM TFV, 30 μM ETV, three donors
Description: as §4, §5, §6, §7

[3] = system: HBV DNA replication in HepG2.2.15 cells; assay: 6-day HBV antiviral assay in HepG2.2.15 cells, qPCR of HBV DNA in supernatant, MacSynergy II; format: cell-based
Description: The anti-HBV activity of combinations of Compound 2 and Compound 3 with the nucleos(t)ide analogues ETV or TFV was assessed in a 6-day HBV antiviral assay using qPCR for the detection of HBV DNA in the cell culture supernatant as a read-out. The combination effect was analyzed using Mac Synergy II software. The anti-HBV activity of ETV and TFV when tested as single agents in HepG2.2.15 cells as well (Table 14).
During the antiviral testing, HepG2.2.15 cells were cultured in RPMI1640 medium and the FBS was reduced to 2%. Cells were plated at a density of 50.000 cells per well into a 96-well plate.
One day after seeding of the HepG2.2.15 cells, the supernatant was removed and 200 μL medium with test compounds, diluted in a checkerboard fashion, was added to the cells. […] HBV DNA was detected by quantitative real time PCR (qPCR). HBV DNA was quantified by a real-time PCR assay using a LightCycler480 Probes Master kit (Roche) with primers 5′-[sequence]-3′ (sense) and 5′-[sequence]-3′ (antisense, SEQ ID NO: 7). […]
The percentage inhibition values obtained for each combination of compound concentration was calculated as the average of 3 to 5 replicate plates of the same combination per experiment. To robustly identify outliers, the distance from the average of the other 4 replicates was calculated for every data point. […]

[4] = system: rtL180M/M204V HBV variant; assay: Antiviral activity in HepG2 cells transiently transfected with rtL180M/M204V HBV variant; format: cell-based, HBV genotype B; conditions: for Fold Change rtL180M/M204V: EC50 fold change relative to mean wild-type EC50, mean ± SD
Description: as §1, §2, §3

[5] = system: rtL180M/M204V/N236T HBV variant; assay: Antiviral activity in HepG2 cells transiently transfected with rtL180M/M204V/N236T HBV variant; format: cell-based, HBV genotype B; conditions: EC50 fold change relative to mean wild-type EC50; mean ± SD
Description: as §1
(§8) Plasmid DNA constructs containing a 1.1×HBV genome under the control of a CMV promoter were previously cloned from serum of an HBV infected patient prior to LMV treatment (Genbank AY220698, Fudan University, China; SEQ ID NO:1, see Table 1) and after development of resistance to LMV (Genbank AY220697, Fudan University, China; SEQ ID NO:2, see Table 1) (Zhang J M et al. 2005. J Med Virol 77: 203-208). Genotyping analysis confirmed that both isolates belong to genotype B HBV, and that the isolate collected after the development of resistance to LMV contained two amino acid changes within the polymerase gene (L180M/M204V). The HBV variant was named rtL180M/M204V to indicate that the amino acid changes were present in the reverse transcriptase (rt) protein. Two additional plasmids were generated by introducing coding sequence changes resulting in the amino acid changes N236T and A181V in the HBV polymerase, respectively. […]
as §3

rtA181V HBV variant = assay: Antiviral activity in HepG2 cells transiently transfected with rtA181V HBV variant; format: cell-based, HBV genotype B; conditions: for Fold Change rtA181V: EC50 fold change relative to mean wild-type EC50, mean ± SD
Description: as §1, §8, §3

[6] = system: rtA181V/N236T HBV variant; assay: Antiviral activity in HepG2 cells transiently transfected with rtA181V/N236T HBV variant; format: cell-based, HBV genotype B; conditions: EC50 fold change relative to mean wild-type EC50; mean ± SD
Description: as §1, with “rtL180M/M204V/N236T. […]” for “rtL180M/M204V/N236T.”
as §3

[7] = donor HuM4038, first HuM4038 column of Table 3, 6 days, read-out: HuM4038 CC50
[8] = donor HuM4038, second HuM4038 column of Table 3, 6 days, read-out: HuM4038 CC50
[9] = donor HuM4055A, 6 days, read-out: HuM4055A CC50
[10] = donor HuM4059, 6 days, read-out: HuM4059 CC50

SMILES | EC50 (wild type HBV) [µM] | Fold Change rtN236T (rtN236T HBV variant) | CC50 at 6 days [1, 7] [µM] | CC50 at 6 days [1, 8] [µM] | CC50 at 6 days [1, 9] [µM] | CC50 at 6 days [1, 10] [µM] | cell viability at single concentrations [2] | Fold Change rtL180M/M204V [4] | Fold Change rtL180M/M204V/N236T [5] | Fold Change rtA181V (rtA181V HBV variant) | Fold Change rtA181V/N236T [6] | also measured
C=C1[C@H](CO)[C@@H](O)C[C@@H]1n1cnc2c(=O)[nH]c(N)nc21 [ETV, entecavir] | 0.0014 ± 0.0004 | 0.67 ± 0.22^ns | > 30 | > 30 | > 30 | > 30 | No reduction of cell viability |  |  |  |  | EC50 ([3]; Hepatitis B virus, HepG2.2.15, read-out: Median EC50): 0.07 nM
C[C@H](Cn1cnc2c(N)ncnc21)OCP(=O)(O)O [TFV, tenofovir] |  |  |  |  |  |  | No reduction of cell viability |  |  |  |  | CC50 ([2]; donor HuM4038, first HuM4038 column of Table 3, read-out: HuM4038 CC50): > 30 µM; CC50 ([2]; donor HuM4038, second HuM4038 column of Table 3, read-out: HuM4038 CC50): > 30 µM; CC50 ([2]; donor HuM4055A, read-out: HuM4055A CC50): > 30 µM; CC50 ([2]; donor HuM4059, read-out: HuM4059 CC50): > 30 µM; EC50 ([3]; single agents in HepG2.2.15 cells, read-out: Median EC50): 15 nM
O=C(Nc1cc(F)c(F)c(F)c1)c1ccc(F)c(S(=O)(=O)N2CCC(O)CC2)c1 [Compound 1, 4-fluoro-3-((4-hydroxypiperidin-1-yl)sulfonyl)-N-(3,4,5,-trifluorophenyl)benzamide] | 0.31 ± 0.1 | 0.85 ± 0.40^ns | 16 | 26 | 19 | 82 |  | 1.3 ± 0.6^ns | 1.4 ± 0.5^ns | 0.82 ± 0.19^ns | 0.85 ± 0.26^ns | CC50 at 6 days ([1]; Table 4, alone, donor HuM4038, read-out: Cmpd (I) CC50): 26 µM; CC50 at 6 days ([1]; Table 4, alone, donor HuM4055A, read-out: Cmpd (I) CC50): 19 µM; CC50 at 6 days ([1]; Table 4, alone, donor HuM4059, read-out: Cmpd (I) CC50): 83 µM; CC50 at 6 days ([1]; Table 5, alone, donor HuM4038, read-out: Cmpd (I) CC50): 16 µM; CC50 at 6 days ([1]; Table 5, alone, donor HuM4055A, read-out: Cmpd (I) CC50): 19 µM; CC50 at 6 days ([1]; Table 5, alone, donor HuM4059, read-out: Cmpd (I) CC50): 83 µM; CC50 at 6 days ([1]; Table 6, alone, donor HuM4038, read-out: Cmpd (I) CC50): 16 µM; CC50 at 6 days ([1]; Table 6, alone, donor HuM4055A, read-out: Cmpd (I) CC50): 19 µM; CC50 at 6 days ([1]; Table 6, alone, donor HuM4059, read-out: Cmpd (I) CC50): 83 µM; CC50 at 6 days ([1]; range over three donors (HuM4038, HuM4055A, HuM4059), 6 days, read-out: CC50 values, range): 16 to 82 µM
Nc1ccn([C@@H]2CS[C@H](CO)O2)c(=O)n1 [LMV, Lamivudine] | 0.53 | 1.0 ± 0.5^ns | > 30 | > 300 | > 300 | > 300 | No reduction of cell viability | >190 | >190 |  |  | 
CC(C)OC(=O)OCOP(=O)(CO[C@H](C)Cn1cnc2c(N)ncnc21)OCOC(=O)OC(C)C [TDF, tenofovir disoproxil fumarate] | 0.032 | 2.2 ± 1.0^b |  |  |  |  |  | 1.1 ± 0.3^ns | 2.9 ± 1.5^b | 1.4 ± 0.05^ns | 2.8 ± 1.4^b | EC50 ([4]; Hepatitis B virus, HepG2, read-out: mean EC50 against rtL180M/M204V variant): 0.034 µM; EC50 (rtA181V HBV variant; Hepatitis B virus, HepG2, read-out: mean EC50 against rtA181V variant): 0.043 µM

Reference: US10441589B2, “Combinations and methods comprising a capsid assembly inhibitor” (Novira Therapeutics, Inc., priority 2016, dated 2019)
